# System: sensitized bronchial muscle
# Test: Antiallergic action: inhibition of egg albumin-induced contraction of sensitized guinea pig bronchial muscle
# Format: tissue-based, guinea pigs of Hartley strain
# Details: Cavia porcellus; for inhibition at 100 µM: 10^-4 M; for inhibition at 10 µM: 10^-5 M; for inhibition at 1 µM: 10^-6 M; for inhibition at 0.1 µM: 10^-7 M; for inhibition at 0.01 µM: 10^-8 M
# Method: Male guinea pigs of Hartley strain (body weight: about 250 g) were intraperitoneally or intramuscularly dosed with egg albumin (dose 100 mg/kg) and the same procedure was repeated after 3 days. After 3 to 4 weeks, the guinea pi-as were bled to death and the sensitized bronchial muscle was excised and cut into 1.5 mm thick rings. Three rings were joined to prepare a specimen. The specimen was suspended in a tissue bath and a load of 1 g was applied. […] After stabilization of the specimen (after about 1 hour), histamine hydrochloride was added to the bath at a final concentration of 10^-5 M. The contraction curve was recorded. After the contraction had been stabilized, the specimen was washed with 3 portions of Ringer's solution at 10-minute intervals to stabilize the contraction (about 1 hour was required). Then, the test compound was added to the tissue bath and, after an interval of 10 minutes, 5 mg/ml of egg albumin was added. The contraction amplitude of the specimen was measured and the percent inhibition was calculated according to the following formula. [formula] A: Contraction amplitude of control group when egg albumin is added A': Contraction amplitude of dosage group when egg albumin is added
# H: Contraction amplitude of control group when histamine hydrochloride is added
# H': Contraction amplitude of dosage group when histamine hydrochloride is added
Structure (SMILES),inhibition at 100 µM [%],inhibition at 10 µM [%],inhibition at 1 µM [%],inhibition at 0.1 µM [%],inhibition at 0.01 µM [%]
CCCCN(CCCC)CC(O)C(C)(O)CCC=C(C)C (stereo not drawn) [(1)],43.6,,,,
CC(C)=CCCC(C)(O)C(O)CN(C)c1ccccc1 (stereo not drawn) [(2)],58.7,30.1,19.9,,
CC(C)=CCCC(C)(O)C(O)CN1CCCC1 (stereo not drawn) [(3)],,36.3,60,34.2,30.8
CNCC(O)C(C)(O)CCCC(C)CCCC(C)CCCC(C)C (stereo not drawn) [(31)],,10.9,,,
CCN(CC)CC(O)C(C)(O)CCCC(C)CCCC(C)CCCC(C)C (stereo not drawn) [(33)],,47.9,32.6,,
CC(C)=CCCC(C)(O)C(O)CN1CCCCC1 (stereo not drawn) [Compound (4)],,42,2.6,,
CC(C)=CCCC(C)(O)C(O)CN1CCOCC1 (stereo not drawn) [Compound (5)],,28.9,71.5,23,
CC(C)=CCCC(C)(O)C(O)CN(C)CCO (stereo not drawn) [Compound (6)],,48.2,28.6,,
CC(C)CCCC(C)(O)C(O)CN (stereo not drawn) [Compound (7)],,54.3,48.1,58.7,
CNCC(O)C(C)(O)CCCC(C)C (stereo not drawn) [Compound (8)],52.6,37.8,,,
CCCCN(CCCC)CC(O)C(C)(O)CCCC(C)C (stereo not drawn) [Compound (9)],,27.9,67.2,56,16
CC(C)CCCC(C)(O)C(O)CNCCO (stereo not drawn) [Compound (10)],,81.2,23.8,,
"CC(C)CCCC(C)CCCC(C)(O)C(O)CN (stereo not drawn) [Compound (11), 1-amino-3,7,11-trimethyl-2,3-dodecanediol]",,40.7,32.5,,
"CNCC(O)C(C)(O)CCCC(C)CCCC(C)C (stereo not drawn) [Compound (12), 1-methylamino-3,7,11-trimethyl-2,3-dodecanediol]",48.3,35.4,,,
"CCCCN(CCCC)CC(O)C(C)(O)CCCC(C)CCCC(C)C (stereo not drawn) [Compound (13), 1-dibutylamino-3,7,11-trimethyl-2,3-dodecanediol]",40.2,,,,
CC(C)CCCC(C)CCCC(C)(O)C(O)CNCCO (stereo not drawn) [Compound (14)],,48.7,51.4,,
"CC(C)CCCC(C)CCCC(C)(O)C(O)CN(C)C (stereo not drawn) [Compound (16), 1-(dimethylamino)-3,7,11-trimethyl-2,3-dodecanediol]",,48,35,15,
"CC(C)CCCC(C)CCCC(C)(O)C(O)CN1CCOCC1 (stereo not drawn) [Compound (17), 3,7,11-trimethyl-l-morpholino-2,3-dodecanediol]",,45,68,29,
"COc1ccc(CN2CCN(CC(O)C(C)(O)CCCC(C)CCCC(C)C)CC2)c(OC)c1OC (stereo not drawn) [Compound (18), 3,7,11-trimethyl-l-[4-[(2,3,4-trimethoxyphenyl)methyl]piperazin-1-yl]-2,3-dodecanediol]",,62,79,45,

Structure (SMILES),inhibition at 100 µM [%],inhibition at 10 µM [%],inhibition at 1 µM [%],inhibition at 0.1 µM [%],inhibition at 0.01 µM [%]
CC(C)CCCC(C)CCCC(C)(O)C(O)CNc1ccc(O)cc1 (stereo not drawn) [Compound (19)],,43,54,33,
CC(C)CCCC(C)CCCC(C)(O)C(O)CNc1ccncc1 (stereo not drawn) [Compound (20)],,,71,40,15
"CC(C)CCCC(C)CCCC(C)(O)C(O)Cn1ccnc1 (stereo not drawn) [Compound (21), 1-(1H-imidazol-1-yl)-3,7,11-trimethyl-2,3-dodecanediol]",,,,66.9,
CC(C)CCCC(C)CCCC(C)(O)C(O)CNCCCN1CCOCC1 (stereo not drawn) [Compound (22)],,,,46.9,
CC(C)CCCC(C)CCCC(C)(O)C(O)CNc1cccc2ncccc12 (stereo not drawn) [Compound (23)],,,76,55,27
CC(C)CCCC(C)CCCC(C)(O)C(O)CN1CCN(C(c2ccccc2)c2ccccc2)CC1 (stereo not drawn) [Compound (24)],,,75,60,25
CC(C)CCCC(C)CCCC(C)(O)C(O)Cn1c(=O)[nH]c2ccccc21 (stereo not drawn) [Compound (25)],,,69,47,19
CC(C)CCCC(C)CCCC(C)(O)C(O)CN1CCSCC1 (stereo not drawn) [Compound (26)],,50,39,18,
"CNCCC(C)(O)CCCC(C)(O)CCCC(C)C (stereo not drawn) [Compound (27), 1-(methylamino)-3,7,11-trimethyl-3,7-dodecanediol]",,,,15.6,
"CNCC(O)C(C)CCCC(C)CCCC(C)C (stereo not drawn) [Compound (28), 1-methylamino-3,7,11-trimethyl-2-dodecanol]",,66,49,35,
"CC(C)CCCC(C)(O)CCCC(C)(O)CCN(C)Cc1ccccc1 (stereo not drawn) [Compound (29), 1-(methylbenzylamino)-3,7,11-trimethyl-3,7-dodecanediol]",,,,42.3,
CC(C)CCCC(C)CCCC(C)CCCC(C)(O)C(O)CN (stereo not drawn) [Compound (30)],,16.7,9,,
CCCCN(CCCC)CC(O)C(C)(O)CCCC(C)CCCC(C)CCCC(C)C (stereo not drawn) [Compound (34)],,65.2,33,3,
"CN(CCC(C)(O)CCCC(C)(O)CCCC(C)(C)O)Cc1ccccc1 (stereo not drawn) [Compound (37), 1-(methylbenzylamino)-3,7,11-trimethyl-3,7,11-dodecanetriol]",,,,16,
CC(C)CCCC(C)CCCC(C)(O)C(O)CN1CCCC1 (stereo not drawn) [Compound (38)],,,,36.7,
CC(C)CCCC(C)CCCC(C)(O)C(O)CN1CCCCC1 (stereo not drawn) [Compound (39)],,,,29.1,
"CC(C)CCCC(C)CCCC(C)(O)C(O)CNC1CCN(Cc2ccccc2)CC1 (stereo not drawn) [Compound (40), 1-[(1-benzylpiperidin-4-yl)amino]-3,7-11-trimethyl-2,3-dodecanediol]",,,,34.8,
CC(C)CCCC(C)CCCC(C)(O)C(O)CNCc1cccnc1 (stereo not drawn) [Compound (41)],,,,46,
COc1ccccc1N1CCN(CC(O)C(C)(O)CCCC(C)CCCC(C)C)CC1 (stereo not drawn) [Compound (42)],,,58,35,

Structure (SMILES),inhibition at 100 µM [%],inhibition at 10 µM [%],inhibition at 1 µM [%],inhibition at 0.1 µM [%],inhibition at 0.01 µM [%]
CC(C)=CCCC(C)(O)C(O)CN (stereo not drawn) [Compound (43)],,,65,,
CNCC(O)C(C)(O)CCC=C(C)C (stereo not drawn) [Compound (44)],,63,54,,
CC(C)=CCCC(C)(O)C(O)CN(C)C (stereo not drawn) [Compound (45)],52,41,26,,
CCNCC(O)C(C)(O)CCC=C(C)C (stereo not drawn) [Compound (46)],38,54,23,,
CCCNCC(O)C(C)(O)CCC=C(C)C (stereo not drawn) [Compound (47)],,52,43,5,
CCN(CC)CC(O)C(C)(O)CCC=C(C)C (stereo not drawn) [Compound (48)],,47,39,,
CCCCNCC(O)C(C)(O)CCC=C(C)C (stereo not drawn) [Compound (49)],,,61,20.7,
"CC(C)=CCCC(C)(O)C(N)CO (stereo not drawn) [Compound (50), 2-amino-3,7-dimethyl-6-octene-1,3-diol]",,55,20,0,
CC(C)=CCCC(C)(O)C(CO)N(C)C (stereo not drawn) [Compound (51)],,41,18,0,
CCCNC(CO)C(C)(O)CCC=C(C)C (stereo not drawn) [Compound (52)],,62,31,7,0
CCCCN(CCCC)C(CO)C(C)(O)CCC=C(C)C (stereo not drawn) [Compound (53)],,33,59,49,8
CC(C)=CCCC(C)(O)C(CO)N1CCCC1 (stereo not drawn) [Compound (54)],,54,63,33,20
CC(C)=CCCC(C)(O)C(CO)N1CCCCC1 (stereo not drawn) [Compound (55)],,45,17,9,0
CC(C)=CCCC(C)(O)C(CO)N1CCOCC1 (stereo not drawn) [Compound (56)],,27,44,16,0
CC(C)=CCCC(C)(O)C(CO)N(C)CCO (stereo not drawn) [Compound (57)],,35,17,,
CC(C)CCCC(C)(O)C(N)CO (stereo not drawn) [Compound (58)],21,0,0,,
"CCCCN(CCCC)C(CO)C(C)(O)CCCC(C)C (stereo not drawn) [Compound (59), 2-(dibutylamino)-3,7-dimethyl-1,3-octanediol]",,49,51,0,
"CC(C)CCCC(C)(O)C(CO)N(C)CCO (stereo not drawn) [Compound (60), 2-[(2-hydroxyethyl)methylamino]-3,7-dimethyl-1,3-octanediol]",,35,11,0,

# — patent US5284850A, “Terpene amino alcohols and medicinal uses thereof” (Kuraray Co., Ltd., priority 1985, dated 1994)
